From article PMC6929321 (Clinical drug investigation, 2019)
Read-outs that look alike come from different tables or passages of the source.

What was measured:
[1] = type: in vivo, human
[2] = type: in vivo, human; remark: listed apart in the source
[3] = Study P038 diltiazem sub-study: adverse events; type: in vivo, human; conditions: for AE: Abnormal dreams / AE: Diarrhea / AE: Headache / AE: Nausea / AE: Somnolence / AE: Vessel puncture site hematoma / ECI: Euphoric mood / ECI: Hypnagogic hallucination / ECI: Hypnopompic hallucination / ECI: Sleep paralysis / Subjects with ≥ 1 AE: Study P038 diltiazem sub-study, N = 20
[4] = Safety assessments across both studies; type: in vivo, human
[5] = Study P008: adverse events; type: in vivo, human; conditions: for AE: Abnormal dreams / AE: Diarrhea / AE: Headache / AE: Nausea / AE: Somnolence / AE: Vessel puncture site hematoma / ECI: Euphoric mood / ECI: Hypnagogic hallucination / ECI: Hypnopompic hallucination / ECI: Sleep paralysis / Subjects with ≥ 1 AE: N = 10
[6] = Suvorexant pharmacokinetics across both trials; type: in vivo; conditions: human, plasma, oral
[7] = type: in vivo, human; remark: listed apart in the source
[8] = in vivo; cited from earlier work
[9] = Study P038 rifampin sub-study: adverse events; type: in vivo, human; conditions: for AE: Abnormal dreams / AE: Diarrhea / AE: Headache / AE: Nausea / AE: Somnolence / AE: Vessel puncture site hematoma / ECI: Euphoric mood / ECI: Hypnagogic hallucination / ECI: Hypnopompic hallucination / ECI: Sleep paralysis / Subjects with ≥ 1 AE: Study P038 rifampin sub-study, N = 10
[10] = suvorexant 20 mg + diltiazem, listed as suvorexant
[11] = suvorexant 40 mg alone, listed as suvorexant

## Cc1ccc(-n2nccn2)c(C(=O)N2CCN(c3nc4cc(Cl)ccc4o3)CC[C@H]2C)c1 [Suvorexant, suvorexant]
[1]; Study P038, suvorexant 40 mg, rifampin 600 mg once daily
  Decrease in suvorexant Cmax on co-administration with rifampin: 64%
[1]; human, plasma, po, 40 mg
  AUC(0-inf): 13.6 µM·h
  Cmax: 850 nM
  Tmax: 2 h
  half-life: 12.9 h
[2]; Study P038 diltiazem sub-study, suvorexant 20 mg, diltiazem 240 mg once daily
  Prolongation (increase) in t½ on co-administration with diltiazem: 3.7 h
[2]; human, plasma, po, 20 mg
  AUC(0-inf): 7.88 µM·h
  Cmax: 620 nM
  Tmax: 1.5 h
  half-life: 12.4 h
[3]; suvorexant 20 mg + diltiazem
  AE: Abnormal dreams: 1 (5) n (%)
  AE: Diarrhea: 0 (0) n (%)
  AE: Headache: 1 (5) n (%)
  AE: Nausea: 0 (0) n (%)
  AE: Somnolence: 17 (85) n (%)
  AE: Vessel puncture site hematoma: 1 (5) n (%)
  ECI: Euphoric mood: 1 (5) n (%)
  ECI: Hypnagogic hallucination: 0 (0) n (%)
  ECI: Hypnopompic hallucination: 0 (0) n (%)
  ECI: Sleep paralysis: 0 (0) n (%)
  Subjects with ≥ 1 AE: 18 (90) n (%)
[3]; [10]
  ECI: Euphoric mood: 1 n (%)
  Subjects with ≥ 1 AE: 18 (90%) n (%)
[3]; suvorexant 20 mg alone
  AE: Abnormal dreams: 1 (5) n (%)
  AE: Diarrhea: 2 (10) n (%)
  AE: Headache: 0 (0) n (%)
  AE: Nausea: 2 (10) n (%)
  AE: Somnolence: 19 (95) n (%)
  AE: Vessel puncture site hematoma: 1 (5) n (%)
  ECI: Euphoric mood: 0 (0) n (%)
  ECI: Hypnagogic hallucination: 0 (0) n (%)
  ECI: Hypnopompic hallucination: 0 (0) n (%)
  ECI: Sleep paralysis: 0 (0) n (%)
  Subjects with ≥ 1 AE: 20 (100) n (%)
[3]; suvorexant 20 mg alone, listed as suvorexant
  Subjects with ≥ 1 AE: 20 (100%) n (%)
[3]; suvorexant 20 mg plus diltiazem
  Duration of ECI euphoric mood: 1 h
[4]; across both studies
  Changes in vital signs, laboratory safety tests, physical examination, or ECG monitoring: no clinically meaningful changes
[4]; both trials, the moderate AE was in the P038 diltiazem sub-study
  Intensity of AEs: All AEs were mild in intensity, except one moderate AE of headache
[4]; either trial (P008, P038), suvorexant alone or with CYP3A inhibitor/inducer
  Serious AEs or deaths: no serious AEs or deaths
[4]; healthy subjects, co-administered with/without a CYP3A inhibitor/inducer
  Tolerability of single suvorexant doses: generally well tolerated
[5]; suvorexant 4 mg + ketoconazole
  AE: Abnormal dreams: 0 (0) n (%)
  AE: Diarrhea: 0 (0) n (%)
  AE: Headache: 1 (10) n (%)
  AE: Nausea: 0 (0) n (%)
  AE: Somnolence: 7 (70) n (%)
  AE: Vessel puncture site hematoma: 0 (0) n (%)
  ECI: Euphoric mood: 0 (0) n (%)
  ECI: Hypnagogic hallucination: 0 (0) n (%)
  ECI: Hypnopompic hallucination: 0 (0) n (%)
  ECI: Sleep paralysis: 0 (0) n (%)
  Subjects with ≥ 1 AE: 7 (70) n (%)
[5]; suvorexant 4 mg alone or with ketoconazole
  AEs considered events of clinical interest (ECIs): no AEs were considered to be ECIs
[5]; suvorexant 4 mg alone
  AE: Abnormal dreams: 0 (0) n (%)
  AE: Diarrhea: 0 (0) n (%)
  AE: Headache: 0 (0) n (%)
  AE: Nausea: 0 (0) n (%)
  AE: Somnolence: 6 (60) n (%)
  AE: Vessel puncture site hematoma: 0 (0) n (%)
  ECI: Euphoric mood: 0 (0) n (%)
  ECI: Hypnagogic hallucination: 0 (0) n (%)
  ECI: Hypnopompic hallucination: 0 (0) n (%)
  ECI: Sleep paralysis: 0 (0) n (%)
  Subjects with ≥ 1 AE: 6 (60) n (%)
[6]
  Tmax: 1 to 2 h
[6]; 40 mg
  half-life: 11.2 to 12.9 h
[7]; Study P008, suvorexant 4 mg, ketoconazole 400 mg once daily
  Prolongation (increase) in t½ on co-administration with ketoconazole: 8.2 h
[7]; human, plasma, po, 4 mg
  AUC(0-inf): 2.61 µM·h
  Cmax: 280 nM
  Tmax: 1 h
  half-life: 11.2 h
[8]
  Effect on psychomotor performance: no clinically meaningful effect on psycho-motor performance
  Reaction time (choice reaction time and simple reaction time): statistically significant prolongation in reaction time
[9]; suvorexant 40 mg + rifampin
  AE: Abnormal dreams: 3 (30) n (%)
  AE: Diarrhea: 0 (0) n (%)
  AE: Headache: 2 (20) n (%)
  AE: Nausea: 0 (0) n (%)
  AE: Somnolence: 9 (90) n (%)
  AE: Vessel puncture site hematoma: 0 (0) n (%)
  ECI: Euphoric mood: 0 (0) n (%)
  ECI: Hypnagogic hallucination: 0 (0) n (%)
  ECI: Hypnopompic hallucination: 0 (0) n (%)
  ECI: Sleep paralysis: 0 (0) n (%)
  Subjects with ≥ 1 AE: 10 (100) n (%)
[9]; suvorexant 40 mg + rifampin, listed as suvorexant
  Subjects with ≥ 1 AE: 10 (100%) n (%)
[9]; suvorexant 40 mg alone
  AE: Abnormal dreams: 2 (20) n (%)
  AE: Diarrhea: 0 (0) n (%)
  AE: Headache: 1 (10) n (%)
  AE: Nausea: 0 (0) n (%)
  AE: Somnolence: 10 (100) n (%)
  AE: Vessel puncture site hematoma: 3 (30) n (%)
  ECI: Euphoric mood: 1 (10) n (%)
  ECI: Hypnagogic hallucination: 1 (10) n (%)
  ECI: Hypnopompic hallucination: 1 (10) n (%)
  ECI: Sleep paralysis: 1 (10) n (%)
  Subjects with ≥ 1 AE: 10 (100) n (%)
[9]; [11]
  ECI: Euphoric mood: 1 n (%)
  ECI: Hypnagogic hallucination: 1 n (%)
  ECI: Hypnopompic hallucination: 1 n (%)
  ECI: Sleep paralysis: 1 n (%)
  Subjects with ≥ 1 AE: 10 (100%) n (%)
[9]; suvorexant 40 mg in the rifampin sub-study
  Duration of ECI hypnopompic hallucination: 1 min
